Results taken from patent US20230172206A1 (BASF SE, priority 2020, published 2023).
Where “and” joins values, the source holds several entries; their conditions need not be identical. Equal entries are not always repeated. Where two headings read alike, the source gives them in different places.

How the values were obtained:
[1] = system: Phakopsora pachyrhizi (F129L); experiment: Protective control of soybean rust on soybeans (PHAKPA P6); assay type: in vivo
[2] = system: Pyrenophora teres (wt); experiment: Micro titer plate test against net blotch on barley (PYRNTE wt); assay type: cell-based; conditions: 0.25 ppm, 7 days after inoculation, relative to compound-free control (100%)
[3] = system: Microdochium nivale; assay type: cell-based; conditions: 0.016 ppm, 7 days after inoculation, relative to compound-free control (100%)
[4] = system: Alternaria solani (wt); assay type: cell-based; conditions: 7 days after inoculation, relative to compound-free control (100%)
[5] = system: Alternaria solani (F129L); experiment: Micro titer plate test against early blight (ALTESO F129L); assay type: cell-based; conditions: 0.016 ppm, 7 days after inoculation, relative to compound-free control (100%)
[6] = system: Colletotrichum orbiculare; experiment: Micro titer plate test against anthracnose (COLLLA); assay type: cell-based; conditions: 0.063 ppm, 7 days after inoculation, relative to compound-free control (100%)
[7] = system: Cercospora sojina; assay type: cell-based; conditions: 4 ppm, 7 days after inoculation, relative to compound-free control (100%)
[8] = system: Leptosphaeria nodorum; experiment: Micro titer plate test against wheat leaf spots (LEPTNO); assay type: cell-based; conditions: 0.063 ppm, 7 days after inoculation, relative to compound-free control (100%)
[9] = system: Septoria tritici; experiment: Micro titer plate test against leaf blotch on wheat (SEPTTR); assay type: cell-based; conditions: 0.25 ppm, 7 days after inoculation, relative to compound-free control (100%)
[10] = system: Phakopsora pachyrhizi (F129L); experiment: Protective control of soybean rust on soybeans (PHAKPA P2); assay type: in vivo; conditions: for PHAKPA (F129L) Disease level (%) P2 at 4 ppm: protective, inoculation 2 days after spraying, % diseased leaf area
[11] = system: Phakopsora pachyrhizi (F129L); experiment: Protective control of soybean rust on detached soybean leaves (PHAKPA P1 DL), F129L isolate; assay type: in vivo
[12] = system: Phakopsora pachyrhizi (wt); experiment: Protective control of soybean rust on detached soybean leaves (PHAKPA P1 DL), Qo inhibitor-sensitive wt isolate; assay type: in vivo

Q: Which results are given for `CO/N=C(/C(=O)OC)c1cccc(C)c1CO/N=C(\C)c1cccc(Cl)c1` [compound 153]?
A: PHAKPA (F129L) Disease level (%) P6 at 16 ppm ([1]; protective, inoculation six days after spraying, 16 ppm, % diseased leaf area, listed as Ex. 153): 1% and 5%; Fungal growth (%) PYRNTE wt [2]: 31%; Fungal growth (%) MONGNI [3]: 75%; Fungal growth (%) ALTESO wt ([4]; 0.016 ppm): 71%; Fungal growth (%) ALTESO F129L [5]: 68%; Fungal growth (%) COLLLA [6]: 55%; Fungal growth (%) CERCSO [7]: 26%; Fungal growth (%) LEPTNO [8]: 55%; Fungal growth (%) SEPTTR [9]: 0%

Q: How did the “Fungal growth (%) PYRNTE wt” value [2] turn out when `CNC(=O)/C(=N/OC)c1cccc(C)c1CO/N=C(\C)c1cccc(Cl)c1` [compound 157] was run?
A: 54%

Q: And the “Fungal growth (%) MONGNI” value [3]?
A: 56%

Q: What about the “Fungal growth (%) ALTESO wt” value ([4]; 0.25 ppm) of the same compound?
A: 27%

Q: And the “PHAKPA (F129L) Disease level (%) P2 at 4 ppm” value ([10]; listed as Ex. 157)?
A: 0% and 1%

Q: What about the “Fungal growth (%) ALTESO F129L” value [5] of the same compound?
A: 57%

Q: What about the “Fungal growth (%) COLLLA” value [6] of the same compound?
A: 63%

Q: And the “Fungal growth (%) CERCSO” value [7]?
A: 36%

Q: And the “Fungal growth (%) SEPTTR” value [9]?
A: 20%

Q: Which “PHAKPA P1 DL Disease level (%) Qo I-resistant F129L isolate (100 % F129L)” value (from here on “PHAKPA P1 DL Disease level … (100 % F129L)”) ([11]; test concentration 0.3 ppm) does the source give for `CNC(=O)/C(=N/OC)c1cccc(C)c1CO/N=C(\C)c1ccc(Cl)cc1` [compound 158] here?
A: 87%

Q: And the “PHAKPA P1 DL Disease level … (100 % F129L)” value ([11]; test concentration 1 ppm)?
A: 57%

Q: And the “PHAKPA P1 DL Disease level … (100 % F129L)” value ([11]; test concentration 3 ppm)?
A: 8%

Q: And the “PHAKPA P1 DL Disease level … (100 % F129L)” value ([11]; test concentration 10 ppm)?
A: 2%

Q: What about the “PHAKPA P1 DL Disease level … (100 % F129L)” value ([11]; test concentration 30 ppm) of the same compound?
A: 4%

Q: And the “PHAKPA P1 DL Disease level … (100 % F129L)” value ([11]; test concentration 100 ppm)?
A: 4%

Q: And the “PHAKPA P1 DL Disease level … (100 % F129L)” value ([11]; test concentration 300 ppm)?
A: 5%

Q: And the “% PHAKPA (F129L) Disease level P6 at 4 ppm” value ([1]; protective P6, 4 ppm, soybean rust F129L isolate)?
A: 2%

Q: And the “% PHAKPA (F129L) Disease level P6 at 16 ppm” value ([1]; protective P6, 16 ppm, soybean rust F129L isolate)?
A: 0%

Q: What about the “PHAKPA (F129L) Disease level (%) P6 at 4 ppm” value ([1]; protective, inoculation six days after spraying, 4 ppm, % diseased leaf area) of the same compound?
A: 4%

Q: And the “Fungal growth (%) MONGNI” value [3]?
A: 71%

Q: What about the “Fungal growth (%) ALTESO wt” value ([4]; 0.016 ppm) of the same compound?
A: 66%

Q: What about the “% PHAKPA (F129L) Disease level P2 at 4 ppm” value ([10]; protective P2, 4 ppm, soybean rust F129L isolate) of the same compound?
A: 0%

Q: What about the “% PHAKPA (F129L) Disease level P2 at 16 ppm” value ([10]; protective P2, 16 ppm, soybean rust F129L isolate) of the same compound?
A: 0%

Q: And the “PHAKPA (F129L) Disease level (%) P2 at 4 ppm” value [10]?
A: 1%

Q: And the “PHAKPA P1 DL Disease level (%) Qo I-sensitive wt isolate (0 % F129L)” value (“PHAKPA P1 DL Disease level … (0 % F129L)” for short) ([12]; test concentration 0.3 ppm)?
A: 38%

Q: And the “PHAKPA P1 DL Disease level … (0 % F129L)” value ([12]; test concentration 1 ppm)?
A: 7%

Q: And the “PHAKPA P1 DL Disease level … (0 % F129L)” value ([12]; test concentration 3 ppm)?
A: 2%

Q: And the “PHAKPA P1 DL Disease level … (0 % F129L)” value ([12]; test concentration 10 ppm)?
A: 1%

Q: What about the “PHAKPA P1 DL Disease level … (0 % F129L)” value ([12]; test concentration 30 ppm) of the same compound?
A: 4%

Q: What about the “PHAKPA P1 DL Disease level … (0 % F129L)” value ([12]; test concentration 100 ppm) of the same compound?
A: 5%

Q: And the “PHAKPA P1 DL Disease level … (0 % F129L)” value ([12]; test concentration 300 ppm)?
A: 4%

Q: What about the “Fungal growth (%) ALTESO F129L” value [5] of the same compound?
A: 79%

Q: What does the source list for `Cc1cccc(-n2nnn(C)c2=O)c1COc1ccn(-c2ccc(Cl)cc2)n1` [drawing 930]?
A: Fungal growth (%) MONGNI [3]: 97%; Fungal growth (%) ALTESO wt ([4]; 0.016 ppm): 98%; Fungal growth (%) ALTESO F129L [5]: 100%
